The source of these data is ChEMBL document CHEMBL1121443, “Role of iodine in thyroid hormones: molecular conformation of a halogen-free hormone analogue” (1980).

The nature of assay [1]: In vivo percentage antigoiter activity of compound was determined. The class given is functional, Rattus norvegicus. On the set-up: concentration or dose not given beside the values.
For another assay, the species on record is Rattus norvegicus. Briefly: In vitro binding affinity of compound to the rat Hepatic nuclear protein receptors was determined.
Assay [2] in a line: In vitro percentage thymocyte activity of compound was determined in rat. The class given is functional. The arrangement: concentration or dose not given beside the values.
Assay [3] concerns the target T1, Thyroxine-binding globulin (Homo sapiens) (UniProt P05543).
T1 sequence (whole entry): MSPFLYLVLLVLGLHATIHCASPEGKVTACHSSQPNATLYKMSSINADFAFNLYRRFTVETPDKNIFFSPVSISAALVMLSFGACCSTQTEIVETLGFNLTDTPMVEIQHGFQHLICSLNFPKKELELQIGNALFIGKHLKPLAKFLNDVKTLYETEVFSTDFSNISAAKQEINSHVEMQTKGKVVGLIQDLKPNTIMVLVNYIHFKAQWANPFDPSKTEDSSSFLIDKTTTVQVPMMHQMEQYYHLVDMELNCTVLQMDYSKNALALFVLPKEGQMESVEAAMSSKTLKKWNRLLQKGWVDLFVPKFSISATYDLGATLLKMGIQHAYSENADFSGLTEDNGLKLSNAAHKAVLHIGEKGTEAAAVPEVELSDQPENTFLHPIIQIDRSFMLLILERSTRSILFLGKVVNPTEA
Put plainly: Percentage thyroxine-binding globulin (TBG) binding activity of compound was determined in human serum. It counts as cell-free.

Assay [4] addresses T1, Thyroxine-binding globulin (Homo sapiens). Put plainly: Percentage thyroxine-binding globulin binding activity of compound was determined in human serum. It counts as cell-free.

`Cc1cc(CC(N)C(=O)O)cc(C)c1Oc1ccc(O)c(C(C)C)c1` (centres undefined): the Activity in assay [1] turned out to be 3.6%; in the assay filed under Rattus norvegicus it was 0.7%; in assay [2], 48%; in assay [3], 0.05%.
Turning to `Cc1cc(Oc2c(C)cc(CC(N)C(=O)O)cc2C)ccc1O` (centres undefined), the Activity in assay [1] worked out at 0.36%; in the assay listed under Rattus norvegicus, 0.1%; in assay [2], 23%; in assay [3], 0%.
Turning to `N[C@@H](Cc1cc(I)c(Oc2ccc(O)c(I)c2)c(I)c1)C(=O)O` [LIOTHYRONINE], the Activity in assay [1] stood at 100%; in assay [2] it was 100%; in assay [3], 9%.
As for `Cc1cc(Oc2c(C)cc(CC(N)C(=O)O)cc2C)cc(C)c1O` (centres undefined), the Activity was found to be 0.54% in assay [1], 0.1% in the assay listed under Rattus norvegicus, 23% in assay [2] and 0% in assay [3].
In the case of `N[C@@H](Cc1cc(I)c(Oc2cc(I)c(O)c(I)c2)c(I)c1)C(=O)O` [LEVOTHYROXINE], the Activity was 18% in assay [1], 12.5% in the assay listed under Rattus norvegicus, 100% in assay [4] and 30% in assay [2].
